Columns and labels:
[1] = target: T1, full-length Akt (Akt^wt) (Homo sapiens, UniProt P31749); test: HTRF KinEASE activity-based assay, IC50 determination; assay type: biochemical
Description: (§1) The biochemical inhibitory activity (IC50) was determined with the HTRF KinEASE assay from Cisbio as
(§2) previously described.1 All reagents for HTRF experiments were purchased from Cisbio Bioassays,
(§3) France. The measurements were analyzed using the Quattro Software Suite for IC50-determination.
(§4) Time-dependent IC50-measurements were performed as described. Briefly, IC50 values were
(§5) determined for twelve different incubation times and afterwards plotted versus accordingly. Data was
(§6) analyzed according to literature procedure.2

[2] = target: T2, Akt1 (Homo sapiens, UniProt P31749); test: Intact protein mass spectrometry, covalent labeling; assay type: binding; conditions: 10 µM protein, 100 µM inhibitor, 1 h, denaturing conditions
T2 construct: Purified full-length wtAkt1 was incubated with a 2-fold molar excess
Description: In order to provide an orthogonal proof for covalent bond formation, we co-incubated the covalent-allosteric inhibitors with the protein Akt1 and analyzed the samples by mass spectrometry (Fig. 2).
Mass spectra were recorded using denaturing conditions.
We used Akt1 for MS experiments and incubated 10 µM of the protein with 100 µM of the inhibitor in
a buffer for 1 h. We analyzed the samples by mass spectrometry using a Thermo Fisher Scientific
Ultimate 3000 HPLC system connected with a Thermo Fisher Scientific Velos Pro (2D ion trap).
A mass range of 700-2000 m/z was scanned
and raw data were deconvoluted and analyzed with ProMass.

[3] = system: KU-19-19; test: Cell viability assay (CellTiter-Glo); assay type: cell-based; conditions: Homo sapiens, 120 h; KU-19-19 (bladder), day 5; read-out: Cell viability assay EC50
Description: Cell Culture and Viability Assay
(§7) analysis, cells were plated on day 0 into white 384-well cell culture plates (Greiner Bio-One) using a
(§8) Multidrop reagent dispenser (Thermo) at cell numbers that ensure linear and optimal luminescent
(§9) signal intensity (AN3-CA: 800 cells/well; BT-474: 400 cells/well; Dan-G: 400 cells/well; HPAF-II: 400
(§10) cells/well). Then the cells were incubated for 24 h in a humidified atmosphere at 37 °C/5 % CO2. The
(§11) cells were treated with inhibitors in serial dilutions ranging from 30 µM down to 0.1 nM using an Echo
(§12) 520 acoustic liquid handler (Labcyte Inc.). Cell viability was analysed on day 5 using the CellTiter-Glo
(§13) assay (Promega) as per manufacturer’s instructions. Luminescence signal was recorded by an EnVision
(§14) Multilabel 2104 Plate Reader (PerkinElmer) with 500 ms integration time. All data were normalized to
(§15) the plate positive control (30 µM staurosporine) and negative control (DMSO). Finally, the data was
(§16) processed with the Quattro Software Suite using a four parameter logistic model. As a quality control,
(§17) the Z’-factor was calculated from 16 positive and negative control values. Only assay results showing
(§18) a Z’-factor ≥ 0.5 were used for further analysis. All experimental points were measured in duplicates
(§19) for each plate and were replicated in at least three times.

[4] = human, 3 µM
Description: For this purpose, we used a microsomal stability assay that is a good predictor for phase I metabolic stability.[50]
Phase I metabolic stability assay
Metabolic stability under oxidative conditions was determined by LCMS-based measuring of
degradation of compounds at 3 µM in human and murine liver microsomes over 60 minutes at 37 °C
Calculating the compound half-life t1/2, the in vitro intrinsic clearance CLint is

[5] = system: ZR-75-1; test: Cell viability assay (CellTiter-Glo); assay type: cell-based
Description: Cell Culture and Viability Assay
as §7, §8, §9, §10, §11, §12, §13, §14, §15, §16, §17, §18, §19

[6] = target: T1, full-length Akt (Akt^wt); test: Kinetic characterization by time-dependent IC50 measurements; assay type: biochemical; conditions: from time-dependent IC50
Description: as §1, §2, §3, §4, §5, §6

[7] = system: BT-474; test: Cell viability assay (CellTiter-Glo); assay type: cell-based; conditions: Homo sapiens, 120 h; BT-474 (breast), day 5; read-out: Cell viability assay EC50
Description: Cell Culture and Viability Assay
as §7, §8, §9, §10, §11, §12, §13, §14, §15, §16, §17, §18, §19

[8] = system: T47D; test: Cell viability assay (CellTiter-Glo); assay type: cell-based; conditions: Homo sapiens, 120 h; T47D (breast), day 5; read-out: Cell viability assay EC50
Description: Cell Culture and Viability Assay
as §7, §8, §9, §10, §11, §12, §13, §14, §15, §16, §17, §18, §19

[9] = system: AN3CA; test: Cell viability assay (CellTiter-Glo); assay type: cell-based; conditions: Homo sapiens, AN3-CA, 120 h; AN3CA (endometrium), day 5; read-out: Cell viability assay EC50
Description: Cell Culture and Viability Assay
as §7, §8, §9, §10, §11, §12, §13, §14, §15, §16, §17, §18, §19

[10] = target: AKT1 (PKB alpha) (Homo sapiens, UniProt P31749); test: SelectScreen Z'LYTE kinase profiling; assay type: biochemical; conditions: ATP at apparent KM
AKT1 (PKB alpha), sequence (P31749 whole entry): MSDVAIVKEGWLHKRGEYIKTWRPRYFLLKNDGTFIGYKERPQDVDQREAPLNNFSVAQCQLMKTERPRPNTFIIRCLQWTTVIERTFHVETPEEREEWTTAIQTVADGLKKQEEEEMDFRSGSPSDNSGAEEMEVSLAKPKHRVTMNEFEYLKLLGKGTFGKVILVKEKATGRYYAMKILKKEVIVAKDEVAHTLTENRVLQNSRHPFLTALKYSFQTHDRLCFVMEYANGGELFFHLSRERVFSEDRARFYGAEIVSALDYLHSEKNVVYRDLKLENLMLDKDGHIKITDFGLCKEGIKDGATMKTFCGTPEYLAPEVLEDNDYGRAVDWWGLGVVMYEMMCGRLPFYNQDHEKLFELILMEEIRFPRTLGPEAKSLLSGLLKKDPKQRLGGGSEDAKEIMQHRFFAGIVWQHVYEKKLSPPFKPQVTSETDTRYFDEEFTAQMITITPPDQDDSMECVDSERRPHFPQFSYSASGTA
Description: (§20) protein kinases at a compound concentration of 1 µM. Measurements were performed in duplicates
(§21) and at the particular apparent ATP KM of each individual kinase employing the activity based Z’LYTE®
(§22) kinase assay of the SelectScreen® Kinase Profiling Services (ThermoFisher Scientific).
(§23) kinases at a compound concentration of 1 µM. Measurements were performed in duplicates and at
(§24) the particular apparent ATP KM of each individual kinase employing the activity based Z’LYTE® kinase
(§25) assay of the SelectScreen® Kinase Profiling Services (ThermoFisher Scientific).

[11] = target: AKT3 (PKB gamma) (Homo sapiens, UniProt Q9Y243); test: SelectScreen Z'LYTE kinase profiling; assay type: biochemical; conditions: ATP at apparent KM
AKT3 (PKB gamma), sequence (Q9Y243 whole entry): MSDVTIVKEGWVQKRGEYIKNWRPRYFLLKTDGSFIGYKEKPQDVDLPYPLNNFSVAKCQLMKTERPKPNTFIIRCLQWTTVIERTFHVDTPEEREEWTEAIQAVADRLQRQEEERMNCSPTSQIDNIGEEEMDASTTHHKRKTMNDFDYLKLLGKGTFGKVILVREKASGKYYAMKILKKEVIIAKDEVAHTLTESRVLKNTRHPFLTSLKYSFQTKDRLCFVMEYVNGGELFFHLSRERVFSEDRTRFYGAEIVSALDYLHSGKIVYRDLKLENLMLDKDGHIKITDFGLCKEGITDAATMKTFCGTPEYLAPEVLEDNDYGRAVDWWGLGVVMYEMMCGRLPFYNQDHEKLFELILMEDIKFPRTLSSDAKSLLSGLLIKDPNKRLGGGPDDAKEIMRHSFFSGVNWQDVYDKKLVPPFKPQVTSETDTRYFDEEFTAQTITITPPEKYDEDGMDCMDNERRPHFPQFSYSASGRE
Description: as §20, §21, §22, §23, §24, §25

[12] = system: MCF-7; test: Cell viability assay (CellTiter-Glo); assay type: cell-based; conditions: Homo sapiens, MCF7, 120 h; MCF-7 (breast), day 5; read-out: Cell viability assay EC50
Description: Cell Culture and Viability Assay
as §7, §8, §9, §10, §11, §12, §13, §14, §15, §16, §17, §18, §19

T1 sequence (P31749 whole entry): as the sequence (P31749 whole entry) above
T2 sequence (P31749 whole entry): as above

With C=CC(=O)Nc1ccc2c(c1)n(C1CCN(Cc3ccc(-c4nc5cc[nH]c(=O)c5cc4-c4ccccc4)cc3)CC1)c(=O)n2C [24b] the “fold loss in inhibitory activity (IC50) compared to 1” value [1] was 3 fold, the IC50 ([1]; HTRF KinEASE) was 3 ± 0.3 nM and the “labeling of Akt1 by mass spectrometry” value [2] was “complete labeling”. For the same compound, the EC50 [3] was 7160 ± 2110 nM, the “fold lower stability in microsomes” value [4] was 4 fold and the EC50 ([5]; Homo sapiens, 120 h, ZR-75-1 (breast), day 5, read-out: Cell viability assay EC50) was 2 nM. For the same compound, the “fold higher inhibitory activity than borussertib” value ([5]; ZR-75-1 EC50) was 2 fold, the Ki [6] was 10.7 ± 0.5 nM and the kinact [6] was 0.00202 s⁻¹. It also gave a kinact/KI [6] of 190000 ± 25000 M⁻¹ s⁻¹, an EC50 [7] of 109 ± 16 nM and an EC50 [8] of 11 ± 2 nM. For the same compound, the EC50 [9] was 230 ± 75 nM, the inhibition at 1 µM [10] was 98% and the inhibition at 1 µM [11] was 75%. The EC50 [12] was 32 ± 8 nM.
